Reference: US11479536B1 (King Abdulaziz University, priority 2022, dated 2022)

Assays:
[1] = tested on: human skin fibroblasts (HSF); experiment: Cytotoxicity on human skin fibroblasts (SRB method); type: cell-based
Protocol: In addition to have a good physicochemical profile, it is important for a studied lead to differentiate between cancer cells and highly proliferating non-cancerous cells. Therefore, we assessed compounds MAK-1 and MAK-6 for both the in silico and in vitro physicochemical characteristics as well as for cytotoxic effect on human skin fibroblasts (SKF) cell lines. Cytotoxicity was determined using Sulforhodamine B (SRB) method. Exponentially growing human skin fibroblast cells (Nawah Scientific, Cairo, Egypt) were collected using 0.25% Trypsin-EDTA and were then seeded in 96-well plates at a density of 1000-2000 cells/well in 10% FBS and penicillin/streptomycin supplemented RPMI-1640 medium. After 24 h, cells were treated with different concentrations of test compounds and incubated for 72 h at 37° C. in a humidified atmosphere containing 5% CO2. Next, the cells were fixed by adding trichloroacetic acid (TCA, 10% final conc. in wells) directly to the wells and incubated for 1 h at 4° C., then cells were washed with distilled water 5 times to remove excess TCA, media, serum proteins, and metabolites, followed by air drying. After that, the fixed cells were stained with 0.4% SRB dissolved in 1% acetic acid for 10 min at room temperature, and excess stain was removed by quickly rinsing with 1% acetic acid. The residual acetic acid was removed completely by air drying the plates for 24 h, and the dye was solubilized with Tris buffer (pH=7.4, 10 mM) for 5 min on a shaker at 1600 rpm. The optical density (OD) of each well was measured spectrophotometrically at 564 nm with an ELISA microplate reader (ChroMate-4300, FL, USA). The IC50 values were calculated according to the equation for Boltzman sigmoidal concentration—response curve using the nonlinear regression fitting models (Graph Pad, Prism Version 5).

T47D spheroids = experiment: Live and dead assay of tumor spheroids, T47D; type: cell-based, human; settings: 48 h post treatment, control 2.60±0.31%
Protocol: The Live/Dead assay contains a mixture of two staining fluorescent dyes that label live and dead cells to enable differentiation between them. The cell viability of the cells in response to the treatment with MAK compounds was examined. The cells were grown for 48 hours and treated with MAK compound for additional 48 hours, then Cytox RED solution reagent was added. After incubation at 37° C. under 5% CO2 for 1 hour, the samples were immediately analyzed by flow cytometry. Mean values and standard deviation of replicates were calculated in comparison to the control group.

CYP2D6 = biological target: T1, CYP2D6 (Homo sapiens, UniProt P10635); experiment: Inhibition assay of human CYP450 enzymes, 2D6; type: in vitro ADME
T1 construct: purchased Fisher Scientific; host or cells: insect supersomes
Protocol: The two compounds MAK-1 and MAK-6 were assessed for its ability to inhibit the three major human CYP450 enzymes, 3A4, 2D6 and 2C9. Assays were run in triplicate. Expressed enzymes in insect supersomes (Fisher Scientific, Waltham, Mass.) were used to minimize non-specific binding and membrane partitioning issues (McMasters et al., 2007). The 3A4 assay uses testosterone as a substrate and analysis was performed by LC/MS/MS on a Waters Xevo TQ instrument as described above using positive electrospray ionization. Assay acceptance criteria was 20% for all standards and 25% for the LLOQ. The 2D6 and 2C9 assays use fluorescent substrates (3-[2-(N,N-diethylamino)ethyl]-7-methoxy-4-methylcoumarin for 2D6; 7-methoxy-4-(trifluoromethyl)coumarin for 2C9) and were analyzed on an Envision plate reader. GraphPad® Prism v 5.04 was used for nonlinear fitting of data to generate IC50 values.

[2] = Binding to mouse plasma proteins (equilibrium dialysis); type: in vitro ADME; settings: CD-1, pH 7.4, 37° C., read-out: free, unbound fraction in mouse plasma
Protocol: The equilibrium dialysis method for determining plasma protein binding was performed as previously described using 96-well dialyzer plates with molecular weight cutoff of 5K (Harvard Apparatus, Holliston, Mass.) and a dual-plate rotator set to maximum speed (Harvard Apparatus, Holliston, Mass.) located in a 37° C. incubator with a 10% CO2-atmospheric environment. Assays were run in triplicate. The test compounds were added to CD-1 mouse plasma (Innovative Research, Novi, Mich., sodium heparin added as anticoagulant; pH adjusted to 7.4 with 2N HCl on day of use) in DMSO (final DMSO concentration 0.4%) to give 10 μM final concentration. Drug/plasma mixture and buffer (Dulbecco's phosphate-buffered saline 1× without calcium and magnesium, Mediatech, Inc., Herndon, Va.) were placed in their respective sides, wells were capped, and the plate was placed in the rotator and allowed to dialyze for 22 h. Following dialysis, aliquots of buffer and plasma mixture were removed and mixed with aliquots of the opposite matrix in 96-well deep plates. Concentrations of analytes from each side of the dialysis plate were determined by LC/MS/MS on a Waters Xevo TQ instrument as described above using positive electrospray ionization. […] The fraction unbound was calculated by dividing the drug concentration in the buffer side of the dialysis plate by the drug concentration in the plasma side.

AMPK (phospho-protein) = experiment: Phosphoproteome array test, phospho-AMPK signal in lysates of treated HL-60 cells; type: cell-based, human
Protocol: The phosphorylation profile of AMPK kinase (among other 37 kinases) was performed using the Proteome Profiler Human Phospho-Kinase Antibody Array Kit by R&D Systems (Minneapolis, Minn., USA) according to the protocol. Briefly, the total cellular protein was extracted using the Lysis buffer and was quantified using Bio-Rad DC Protein Assay kit (Hercules, Calif., USA). Nitrocellulose membrane set (A&B), pre-spotted with kinase-specific capture antibodies, were first blocked with Array Buffer-1 at RT for 30 min on a rocking platform shaker. Approximately 600 μg of protein concentrate was diluted in the buffer provided and was added onto the membrane set, and the membranes were incubated overnight at 4° C. in an 8-well plate. Subsequently, membranes were washed with Wash Buffer and incubated with appropriate Detection Antibody cocktails for 2 h at RT. Streptavadin-HRP (1:2000) was added onto membranes and incubated for 30 min at RT. Membranes were washed, and Chemiluminescent Detection Reagents 1&2 were applied in equal volumes for detection. The signals were detected on C-DiGit® Blot Scanner (LI-COR, Odyssey Imaging Systems, Lincoln, Nebr., USA) using Image Studio 5.0 software.

T1 sequence (P10635 whole entry): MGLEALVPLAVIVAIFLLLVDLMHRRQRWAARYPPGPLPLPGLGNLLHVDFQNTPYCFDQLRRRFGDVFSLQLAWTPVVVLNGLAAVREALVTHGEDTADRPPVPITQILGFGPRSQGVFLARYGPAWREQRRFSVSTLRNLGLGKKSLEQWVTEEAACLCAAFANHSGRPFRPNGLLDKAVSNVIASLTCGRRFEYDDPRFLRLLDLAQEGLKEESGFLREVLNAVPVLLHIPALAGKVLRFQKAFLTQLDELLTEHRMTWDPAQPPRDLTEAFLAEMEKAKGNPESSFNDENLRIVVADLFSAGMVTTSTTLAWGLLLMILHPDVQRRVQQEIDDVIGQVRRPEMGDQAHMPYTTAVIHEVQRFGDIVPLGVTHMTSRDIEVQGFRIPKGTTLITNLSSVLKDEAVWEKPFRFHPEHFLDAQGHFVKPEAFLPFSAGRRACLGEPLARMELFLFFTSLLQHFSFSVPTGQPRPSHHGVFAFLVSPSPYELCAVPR

In the case of O=C(Cc1ccc(NC(=O)c2cccc(Cl)c2)cn1)NCc1ccccc1 [MAK-6, N-(6-(2-(benzylamino)-2-oxoethyl)pyridin-3-yl)-3-chlorobenzamide], the “safety to normal cells (human skin fibroblasts)” value ([1]; HSF, SRB, 72 h) is reported as “highly safe”, the “dead rate (dead cells), mean±SEM” value (T47D spheroids) is reported as 37.97±0.27% and the “inhibition of CYP2D6” value (CYP2D6; concentration not given) is reported as “did not display any inhibitory activity”. The fraction unbound at 22 h, 10 μM [2] was 0.087 and the “decrease of phospho-protein AMPK existence” value (AMPK (phospho-protein); compound at 8 μM) was 92.1%.

In the case of COc1cccc(C(=O)Nc2ccc(CC(=O)NCc3ccccc3)cc2)c1 [MAK-1, N-(4-(2-(benzylamino)-2-oxoethyl)phenyl)-3-methoxybenzamide], the “normal cells inhibited at x-fold higher concentrations than MCF7 breast cancer cells” value ([1]; HSF vs MCF7) is reported as 7 fold, the “dead rate (dead cells), mean±SEM” value (T47D spheroids) is reported as 42.43±0.49% and the “inhibition of CYP2D6” value (CYP2D6; concentrations up to 10 μM) is reported as “no inhibition”. The fraction unbound at 22 h, 10 μM [2] was 0.083 and the “decrease of phospho-protein AMPK existence” value (AMPK (phospho-protein); compound at 6 μM) was 61.8%.
